Experimental data reported in patent publication US10149887B2, “Peptides and peptidomimetics in combination with t cell activating and/or checkpoint inhibiting agents for cancer treatment” (CanBas Co., Ltd., priority 2015, dated 2018).
Square brackets hold non-standard residues; d marks the D form. Ends that are not written are not given here. Peptide text beside a SMILES is read from it. dPhe(4-NO2) = N[C@H](Cc1ccc([N+](=O)[O-])cc1)C(=O)O; dPhe(F5) = N[C@H](Cc1c(F)c(F)c(F)c(F)c1F)C(=O)O; dBpa = N[C@H](Cc1ccc(C(=O)c2ccccc2)cc1)C(=O)O; dCha = N[C@H](CC1CCCCC1)C(=O)O; Aun = NCCCCCCCCCCC(=O)O

Legend:
[1] = test system: Jurkat cells; assay: G2 checkpoint abrogation, flow cytometry of bleomycin treated Jurkat cells; type: cell-based, human; settings: for G2 checkpoint abrogating activity (in words): Jurkat cells with bleomycin 40 μg/ml; for G2 abrogating dose: dose with 40 μg/ml bleomycine giving detectable G2 checkpoint abrogation, 24 hours
Method: Flow cytometry analysis of G2 checkpoint abrogation was performed using human leukemia derived Jurkat cell line. In brief, cultured cells were treated with various doses of peptide/peptidomimetic and 40 μg/ml bleomycine for 24 hr. The DNA of the cells was stained with propidium iodide and analyzed by flow cytometry.
The G2 checkpoint abrogating activity of various arginine rich sequences at different doses on cells treated with bleomycine was studied. Briefly, peptides were added to culture medium of Jurkat cells with bleomycin (40 μg/ml) at 0.2 μg/ml, 0.39 μg/ml, 0.78 μg/ml, 1.56 μg/ml, 3.125 μg/ml, 6.25 μg/ml, 12.5 μg/ml, 25 μg/ml and 50 μg/ml. Cells were subsequently harvested after 24 hours, stained with Krishan's solution, and analyzed with flow cytometry as previously described.

[2] = target: T1, recombinant human full length Chk2 (Homo sapiens, UniProt O96017); assay: In vitro kinase inhibition (CycLex), phosphorylation of serine 216 on GST-Cdc25C; type: biochemical
T1 construct: E. Coli derived recombinant human full length Chk2 fused with GST; host or cells: E. coli
T1 sequence (O96017 whole entry, the tested form may be a part): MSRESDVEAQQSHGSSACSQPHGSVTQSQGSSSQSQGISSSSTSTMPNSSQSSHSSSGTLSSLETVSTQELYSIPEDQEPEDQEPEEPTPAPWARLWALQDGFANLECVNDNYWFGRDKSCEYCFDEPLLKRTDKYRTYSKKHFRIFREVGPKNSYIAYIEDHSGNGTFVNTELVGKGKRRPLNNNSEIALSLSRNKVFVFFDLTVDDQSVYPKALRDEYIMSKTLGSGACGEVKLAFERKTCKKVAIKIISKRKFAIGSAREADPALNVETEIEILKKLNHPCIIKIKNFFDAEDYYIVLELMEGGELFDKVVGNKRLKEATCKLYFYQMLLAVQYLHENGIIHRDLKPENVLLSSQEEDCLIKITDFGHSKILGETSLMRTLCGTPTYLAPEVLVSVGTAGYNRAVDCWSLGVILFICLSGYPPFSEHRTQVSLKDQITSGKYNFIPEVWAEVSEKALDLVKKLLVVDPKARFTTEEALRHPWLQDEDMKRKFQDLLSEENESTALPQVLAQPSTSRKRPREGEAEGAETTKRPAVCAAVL
Method: (§1) In vitro kinase inhibition analysis was performed by CycLex, Co. Ltd., Nagano, Japan. Briefly, baculovirus derived recombinant human full length Chk1 with histidine tag or E. Coli derived recombinant human full length Chk2 fused with GST were used as kinases. E. Coli derived recombinant GST-Cdc25C (amino acis 167-267) was used as a substrate. Reaction conditions were 20 mM Hepes-KOH (pH7.5), 1 mM DTT, 80 μg/ml BSA, 10 mM MgCl2 and […] at 30 degree for 60 min. The phosphorylation of serine 216 on GST-Cdc25C was detected by anti-Cdc25C-phosphorylated 5216 antibody with enzyme linked immune assay.

[3] = target: T2, recombinant human full length Chk1 (Homo sapiens, UniProt O14757); assay: as above; type: biochemical
T2 construct: baculovirus derived recombinant human full length Chk1 with histidine tag; histidine tag; host or cells: baculovirus system (insect cells) for Chk1; E. coli for the GST-Cdc25C substrate
T2 sequence (O14757 1-476): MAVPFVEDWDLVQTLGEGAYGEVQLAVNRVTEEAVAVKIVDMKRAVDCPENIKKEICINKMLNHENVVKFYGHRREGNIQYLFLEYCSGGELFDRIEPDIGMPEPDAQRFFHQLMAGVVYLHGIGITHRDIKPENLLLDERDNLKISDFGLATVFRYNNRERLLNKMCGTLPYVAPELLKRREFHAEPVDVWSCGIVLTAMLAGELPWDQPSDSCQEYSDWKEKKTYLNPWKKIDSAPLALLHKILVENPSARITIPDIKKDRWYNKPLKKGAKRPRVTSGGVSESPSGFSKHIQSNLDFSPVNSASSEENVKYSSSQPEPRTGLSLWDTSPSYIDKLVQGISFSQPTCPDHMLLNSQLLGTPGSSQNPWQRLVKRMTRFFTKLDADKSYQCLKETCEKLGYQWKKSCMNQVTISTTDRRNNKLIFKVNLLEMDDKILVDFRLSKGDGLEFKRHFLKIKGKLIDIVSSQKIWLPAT
Method: as §1

[4] = test system: Jurkat cells; assay: M phase checkpoint abrogation / non specific toxicity, colchicine treated Jurkat cells; type: cell-based; settings: dose with 5 μg/ml colchicine that produced Jurkat cell cycle disturbance, 24 hours
Method: Flow cytometry analysis of M phase checkpoint abrogation by the compounds was performed using human T cell leukemia Jurkat cell line treated with colchicine (5 μg/ml or 0.5 μg/ml) and various doses of peptide/peptidomimetics for 24 hr (FIG. 12). The DNA of the cells was stained and analyzed by flow cytometry as described above.
(§2) The “Appearance of side effect when used alone” indicates the peptide/peptidomimetic dose that produced Jurkat cell cycle disturbance, i.e., the appearance of significant amounts of SubG1 cells (dead cells) or cells in which the DNA content of each varies more than usual. […] The “G2 abrogating dose” indicates the peptide/peptidomimetic dose with 40 μg/ml bleomycine that produced detectable G2 checkpoint abrogation activity following treatment for 24 hours. The “Appearance of side effect when used with colchicine” indicates the peptide/peptidomimetic dose with 5 μg/ml colchicine that produced Jurkat cell cycle disturbance following treatment for 24 hours.
A comparison between G2 checkpoint abrogating activity and non specific toxicity (M checkpoint abrogation) by CB501 was performed. In brief, Jurkat cells were treated with 40 μg/ml bleomycin or 0.5 μg/ml colchicine for G2 checkpoint abrogating activity and non specific toxicity, respectively. The DNA amount in each of the treated cells was analyzed by flow cytometry, as previously described.

[5] = Human serum treatment analysis (residual G2 checkpoint abrogating activity); type: in vitro ADME; settings: 37 degrees
Method: Serum analysis was performed to determine the stability of peptides in mouse and human serum. Briefly, peptides (10 mM or 2.5 mM) were incubated with freshly prepared human serum at 37 degrees for 1 hr. […] Jurkat cells were treated with the serum with or without peptides and bleomycin (40 μg/ml) and incubated for 24 hr. The population of G2 phase cells was determined by flow cytometry as previously described. The residual G2 checkpoint abrogating activity of serum treated peptides were determined by comparing the % G2 cells of the treated serum and the standard curve produced with medium treated peptides, bleomycin and Jurkat cells (Table 5A).

[6] = test system: Jurkat cells; assay: Side effect of peptide used alone: Jurkat cell cycle disturbance (flow cytometry); type: cell-based; settings: dose that produced Jurkat cell cycle disturbance, peptide alone
Method: Cell-cycle analysis The cell cycle status of the cells treated with bleomycin or adriamcin were analyzed by flow cytometry as described by Kawabe (1997) Nature 385:454-458. In brief, two million cells were re-suspended and incubated in 200 μl Krishan's solution (0.1% Sodium citrate, 50 μg/ml PI, 20 μg/ml RNase A and 0.5% NP-40) for 1 hr at 4° C. and analyzed by a flow cytometry, FACScan™ (Beckton Dickinson, Mountain View, Calif.) with the program CELLQuest™ (Beckton Dickinson).
as §2

Q: With “(d-Arg)(d-Arg)(d-Arg)(d-Arg)(d-Bpa)(d-Arg)(d-Trp)(d-Arg)(d-Phe-2,3,4,5,6-F)(d-Cha) ([dR][dR][dR][dR][dBpa][dR][dW][dR][dPhe(F5)][dCha]) [CBP702]” as the molecule, how does the “G2 checkpoint abrogating activity (in words)” value [1] read?
A: retain G2 checkpoint abrogating activity comparable to other peptides having significant G2 checkpoint abrogating activity

Q: Which results are given for `N=C(N)NCCC[C@@H](NC(=O)[C@@H](CCCNC(=N)N)NC(=O)[C@@H](CCC(N)=O)NC(=O)[C@@H](CCCNC(=N)N)NC(=O)[C@@H](CCCNC(=N)N)NC(=O)[C@@H](CCCNC(=N)N)NC(=O)[C@@H](CC1CCCCC1)NC(=O)[C@@H](Cc1c(F)c(F)c(F)c(F)c1F)NC(=O)[C@@H](CO)NC(=O)[C@@H](Cc1c[nH]c2ccccc12)NC(=O)[C@@H](CO)NC(=O)[C@@H](CC(=O)O)NC(=O)[C@H](N)Cc1ccc(C(=O)c2ccccc2)cc1)C(=O)O` [CBP505, (d-Bpa)(d-Asp)(d-Ser)(d-Trp)(d-Ser)(d-Phe-2,3,4,5,6-F)(d-Cha)(d-Arg)(d-Arg)(d-Arg)(d-Gln)(d-Arg)(d-Arg)] (H-[dBpa][dD][dS][dW][dS][dPhe(F5)][dCha][dR][dR][dR][dQ][dR][dR]-OH; N-terminus and C-terminus assumed)?
A: IC50 [2]: > 100 µM; IC50 [3]: 63.4 µM

Q: For “(d-Arg)(d-Arg)(d-Arg)(d-Bpa)(d-Arg)(d-Arg)(d-Arg)(d-Phe-2,3,4,5,6-F)(d-Cha) ([dR][dR][dR][dBpa][dR][dR][dR][dPhe(F5)][dCha]) [CBP703]”, which “G2 checkpoint abrogating activity (in words)” value [1] is on record?
A: retain G2 checkpoint abrogating activity comparable to other peptides having significant G2 checkpoint abrogating activity

Q: With `N=C(N)NCCC[C@H](NC(=O)CNC(=O)[C@@H](N)Cc1ccc(O)cc1)C(=O)N[C@@H](CCCCN)C(=O)N[C@@H](CCCCN)C(=O)N[C@@H](CCCNC(=N)N)C(=O)N[C@@H](CCCNC(=N)N)C(=O)N[C@@H](CCC(N)=O)C(=O)N[C@@H](CCCNC(=N)N)C(=O)N[C@@H](CCCNC(=N)N)C(=O)N[C@@H](CCCNC(=N)N)C(=O)N[C@@H](CC1CCCCC1)C(=O)N[C@@H](Cc1c(F)c(F)c(F)c(F)c1F)C(=O)N[C@@H](CCCNC(=N)N)C(=O)N[C@@H](CO)C(=O)N1CCC[C@H]1C(=O)N[C@@H](CO)C(=O)N[C@@H](Cc1ccc(O)cc1)C(=O)N[C@@H](Cc1ccc(O)cc1)C(=O)O` [CBP413, (1-Tyr)(1-Gly)(1-Arg)(1-Lys)(1-Lys)(1-Arg)(1-Arg)(1-Gln)(1-Arg)(1-Arg)(1-Arg)(1-Cha)(1-Phe-2,3,4,5,6-F)(1-Arg)(1-Ser)(1-Pro)(1-Ser)(1-Tyr)(1-Tyr)] as the molecule, how does the “Appearance of side effect when used with Colchicine” value (“Appearance … with Colchicine” below) [4] read?
A: >25 µM

Q: And the “Residual activity of peptide after 1 hr human serum treatment” value [5]?
A: <0.4% of original

Q: And the G2 abrogating dose [1]?
A: ≥1.56 µM

Q: And the “Appearance of side effect when used alone” value (from here on “Appearance … when used alone”) [6]?
A: >25 µM

Q: Which “G2 checkpoint abrogating activity (in words)” value [1] does the source give for “(d-Arg)(d-Arg)(d-Bpa)(d-Arg)(d-Arg)(d-Arg)(d-Phe-2,3,4,5,6-F)(d-Cha) ([dR][dR][dBpa][dR][dR][dR][dPhe(F5)][dCha]) [CBP700]” here?
A: retain G2 checkpoint abrogating activity comparable to other peptides having significant G2 checkpoint abrogating activity

Q: With `N=C(N)NCCC[C@@H](NC(=O)[C@@H](CCCNC(=N)N)NC(=O)[C@@H](CCC(N)=O)NC(=O)[C@@H](CCCNC(=N)N)NC(=O)[C@@H](CCCNC(=N)N)NC(=O)[C@@H](CCCNC(=N)N)NC(=O)[C@@H](CC1CCCCC1)NC(=O)[C@@H](Cc1ccc([N+](=O)[O-])cc1)NC(=O)[C@@H](CO)NC(=O)[C@@H](Cc1c[nH]c2ccccc12)NC(=O)[C@@H](CO)NC(=O)[C@H](N)Cc1ccc(C(=O)c2ccccc2)cc1)C(=O)O` [CBP603, (d-Bpa)(d-Ser)(d-Trp)(d-Ser)(d-Phe4No2)(d-Cha)(d-Arg)(d-Arg)(d-Arg)(d-Gln)(d-Arg)(d-Arg)] (H-[dBpa][dS][dW][dS][dPhe(4-NO2)][dCha][dR][dR][dR][dQ][dR][dR]-OH; N-terminus and C-terminus assumed) as the molecule, how does the “Residual activity of peptide after 1 hr human serum treatment” value [5] read?
A: >50% of original

Q: What about the IC50 [2] of the same molecule?
A: 18.1 µM

Q: What about the IC50 [3] of the same molecule?
A: 15.5 µM

Q: Which “G2 checkpoint abrogating activity (in words)” value [1] does the source give for “(d-Arg)(d-Arg)(d-Arg)(d-Bpa)(d-Arg)(d-Trp)(d-Arg)(d-Phe-2,3,4,5,6-F)(d-Cha) ([dR][dR][dR][dBpa][dR][dW][dR][dPhe(F5)][dCha]) [CBP701]” here?
A: retain G2 checkpoint abrogating activity comparable to other peptides having significant G2 checkpoint abrogating activity

Q: Which “Appearance … with Colchicine” value [4] does the source give for `N=C(N)NCCC[C@@H](NC(=O)[C@@H](CCCNC(=N)N)NC(=O)[C@@H](CCC(N)=O)NC(=O)[C@@H](CCCNC(=N)N)NC(=O)[C@@H](CCCNC(=N)N)NC(=O)[C@@H](CCCNC(=N)N)NC(=O)[C@@H](CC1CCCCC1)NC(=O)[C@@H](Cc1c(F)c(F)c(F)c(F)c1F)NC(=O)[C@@H](CO)NC(=O)[C@@H](Cc1c[nH]c2ccccc12)NC(=O)[C@@H](CO)NC(=O)[C@@H](Cc1ccc(C(=O)c2ccccc2)cc1)NC(=O)[C@H](N)Cc1ccc(O)cc1)C(=O)O` [CBP500, (d-Tyr)(d-Bpa)(d-Ser)(d-Trp)(d-Ser)(d-Phe-2,3,4,5,6-F)(d-Cha)(d-Arg)(d-Arg)(d-Arg)(d-Gln)(d-Arg)(d-Arg)] (H-[dY][dBpa][dS][dW][dS][dPhe(F5)][dCha][dR][dR][dR][dQ][dR][dR]-OH; N-terminus and C-terminus assumed) here?
A: >12.5 µM

Q: What about the G2 abrogating dose [1] of the same molecule?
A: ≥0.39 µM

Q: And the “Appearance … when used alone” value [6]?
A: >50 µM

Q: What about the IC50 [2] of the same molecule?
A: 8 µM

Q: And the IC50 [3]?
A: 5.6 µM

Q: With `N=C(N)NCCC[C@@H](NC(=O)[C@@H](CCCCN)NC(=O)[C@@H](CCCCN)NC(=O)[C@@H](CCCNC(=N)N)NC(=O)[C@@H](CCCNC(=N)N)NC(=O)[C@@H](CCC(N)=O)NC(=O)[C@@H](CCCNC(=N)N)NC(=O)[C@@H](CCCNC(=N)N)NC(=O)[C@@H](CCCNC(=N)N)NC(=O)[C@@H](CC1CCCCC1)NC(=O)[C@@H](Cc1c(F)c(F)c(F)c(F)c1F)NC(=O)CCCCCCCCCCNC(=O)[C@H](Cc1ccc(O)cc1)NC(=O)[C@@H](N)Cc1ccc(O)cc1)C(=O)NCC(=O)N[C@H](Cc1ccc(O)cc1)C(=O)O` [CBP460, (1-Tyr)(1-Tyr)(1-aminoundecanoic acid)(d-Phe-2,3,4,5,6-F)(d-Cha)(d-Arg)(d-Arg)(d-Arg)(d-Gln)(d-Arg)(d-Arg)(d-Lys)(d-Lys)(d-Arg)(1-Gly)(d-Tyr)] (H-YY[Aun][dPhe(F5)][dCha][dR][dR][dR][dQ][dR][dR][dK][dK][dR]G[dY]-OH; N-terminus and C-terminus assumed) as the molecule, how does the “Appearance … with Colchicine” value [4] read?
A: >3.125 µM

Q: What about the “Appearance … when used alone” value [6] of the same molecule?
A: >3.125 µM
